Ten molecules from US5571687A, “Modulators of multidrug resistance transporters” (Duke University, priority 1994, dated 1996) can be followed below.

Series [1] has as its target P-glycoprotein (human MDR1 expressed in Sf9 cells) (Homo sapiens, UniProt P08183, G185V). As to the kind of experiment: P-gp-associated ATPase activity (vanadate-sensitive release of inorganic phosphate from ATP), stimulation, membranes of Sf9 cells expressing human MDR1. An excerpt: (§1) physiologic and non-physiologic compounds, including prenylcysteines and analogs thereof, can be tested in vitro for their ability to serve as P-gp substrates (and thus modulators of MDR transporter activity), both in terms of stimulating the intrinsic ATPase activity of the transporter and competing for drug binding. Insect cells (eg Sf9 cells) infected with baculovirus containing MDR1 cDNA (available from the American Type Culture Collection, Rockville, Md.) can be used as a source of membranes suitable for use in such in vitro screens. Membranes from drug-induced resistant cells can also be used (eg, MCF7-MDR breast cancer cells). Details of an appropriate protocol for testing compounds for their ability to stimulate P-gp-associated ATPase are given in the Examples. The method described involves incubating MDR transporter-containing membranes with the test compound and measuring the level of vanadate sensitive release of inorganic phosphate from ATP (see Sarkadi et al, J. Biol. Chem. 267:4854 (1992)).
Sf9 cells were grown in Grace's insect culture media supplemented with 10% fetal bovine serum (HyClone), 0.1% Pluronic F-68, 100 unit/ml penicillin and 100 μg/ml streptomycin. Sf9 cells were infected with baculovirus according to established procedures (O'Reilly et al, Baculovirus Expression Vectors--A Laboratory Manual, New York: W.H. Freeman & Co. (1992)). Recombinant baculovirus containing the human MDR1V185 cDNA (Germann et al, Biochemistry 29:2295 (1990)) was provided by Dr. M. Gottesman (MDR1 cDNAs are available from the American Type Culture Collection, Rockville, Md.). Mock-infection was carried out using recombinant baculovirus containing the cDNA encoding a protein prenyltransferase. […] These cells were grown in Iscove's Modified Dulbecco's Media (MDM) supplemented with 10% fetal bovine serum. The MCF7-MDR cells were exposed to 10 μM doxorubicin every 8-10 passages to maintain the drug-resistant phenotype.
Sf9 membranes were prepared from cells harvested 3 days after infection with specified baculovirus as described (Sarkadi et al, J. Biol. Chem. 267:4854 (1992)). MCF7 membranes from both wild-type and drug-resistant cell lines were prepared by nitrogen cavitation procedures (Cornwell et al, J. Biol. Chem. 261:7921 (1986)), flash-frozen in liquid nitrogen, and stored at -80° C. until use.
P-gp-associated ATPase activity was measured by determining vanadate-sensitive release of inorganic phosphate from ATP as described (Sarkadi et al, J. Biol. Chem. 267:4854 (1992)). Sf9 membranes containing 5-10 μg protein were incubated in 100 μl of 50 mM Mes-Tris, pH 6.8, 50 mM KCl, 2 mM DTT, 2 mM EGTA, 1 mM ouabain, 5 mM sodium azide, 5 mM Mg/ATP. P-gp-associated ATPase activity in MCF7-MDR cells was measured using the same condition except that 50 mM Mes-Tris, pH 6.8 was replaced by 50 mM Tris-HCl, pH 7.5. […] Reactions were conducted at 37° C. for 20 min.

In series [2] the target is native P-gp expressed in the drug-resistant human breast cancer cell line MCF7-MDR (Homo sapiens, UniProt P08183). The conditions noted are these: mcf7-mdr membranes, 20 min.
From the text: as §1, with “(1992)). […]” for “(1992)).”
P-gp-associated ATPase activity was measured by determining vanadate-sensitive release of inorganic phosphate from ATP as described (Sarkadi et al, J. Biol. Chem. 267:4854 (1992)). […] P-gp-associated ATPase activity in MCF7-MDR cells was measured using the same condition except that 50 mM Mes-Tris, pH 6.8 was replaced by 50 mM Tris-HCl, pH 7.5. […]

Another series has as its target P-gp (Homo sapiens, UniProt P08183, G185V). The experiment in a line: Inhibition of basal and drug-stimulated P-gp ATPase activity. Type of series: biochemical. An excerpt: FIG. 3. Ability of acetyl farnesyl methylester (AFCME) to block drug stimulated ATPase of MDR.
FIG. 4. Interaction of prenylcysteine methylamides and prenylcysteine-containing dipeptides with P-gp. The compounds were purified by reversephase HPLC chromatography and analyzed for their ability to stimulate the ATPase activity of P-gp in Sf9 membranes and, in the case of AFCMA, to inhibit FCME-stimulated ATPase activity as described for AFCME in Example 4. Left panel--Stimulation of P-gp ATPase activity in Sf9 membranes. Increasing concentration of FCMA (.box-solid.), farnesylated γGlu-Cys (unmethylated F-dipeptide, Δ), and the methylated form of farnesylated γGlu-Cys (methylated F-dipeptide, .tangle-solidup.) were analyzed. Right panel AFCMA inhibition of P-gp ATPase activity in Sf9 membranes. Increasing concentrations of AFCMA were added to membranes from Sf9 cells expressing P-gp either with no added drug (.largecircle.) or along with 20 μM […] as an ATPase stimulator (.circle-solid.).
The ATPase assay can also be used to identify test compounds that inhibit P-gp activity, ie P-gp antagonists, which are also potential agents for reversing P-gp-mediated drug resistance. In this type of assay, the ability of a selected test compound to reduce P-gp-ATPase which has been stimulated by a drug known to elicit this activity (eg verapimil or farnesylcysteine methyl ester (FCME) is examined. Increasing concentrations of the selected test compound and a fixed amount of the stimulatory drug are mixed, added to the P-gp preparation, and ATPase activity determined. A dose-dependent inhibition of ATPase activity by the selected compound indicates an antagonist.
Reactions were conducted at 37° C. for 20 min.

Where [3] appears, read: read-out: maximum stimulation of P-gp ATPase.

Where two headings read alike, the source gives them in different places.

On to `CC(=O)N[C@@H](CSCC=C(C)CCC=C(C)CCC=C(C)C)C(=O)O` [AFC, N-acetyl-S-farnesylcysteine], for which the “ATPase stimulation (in words)” value in series [1] is “did not stimulate the transporter's ATPase activity”.
Turning to `CNC(=O)C(N)CSCC=C(C)CCC=C(C)CCC=C(C)C` (stereo not drawn) [FCMA], in series [1], the “stimulation of P-gp ATPase activity (in words)” value is reported as “potent in stimulation”.
On to `COC(=O)[C@@H](N)CSC/C=C(\C)CC/C=C(\C)CC/C=C(\C)CCC=C(C)C` [GGCME, S-geranylgeranylcysteine methyl ester], for which, in series [1], the “concentration of maximum stimulation of P-gp ATPase” value lay in the range of 10 to 20 µM and the “stimulation of P-gp ATPase activity (in words)” value is “stimulated this activity in a fashion very similar to that of verapamil”. Also, the Emax in series [1] (setting [3]) lay within 400 to 500%. In series [2], the “increase of P-gp-catalyzed ATP hydrolysis” value is ~ 2.5 fold.
Turning to `CC(C)=CCCC(C)=CCCC(C)=CCSC[C@H](N)C(=O)O` [FC, S-farnesylcysteine], the “stimulation of P-gp ATPase activity (in words)” value in series [1] is “ineffective in stimulating the ATPase of P-gp”.
Turning to `COC(=O)[C@@H](N)CSC/C=C(\C)CC/C=C(\C)CCC=C(C)C` [FCME, S-farnesylcysteine methyl ester], in series [1], the “concentration of maximum stimulation of P-gp ATPase” value is 10 to 20 µM and the “stimulation of P-gp ATPase activity (in words)” value is “stimulated this activity in a fashion very similar to that of verapamil”. In series [1] (read-out: Maximal stimulation of ATPase activity), the Emax is ~450%. Also, the Emax in series [1] (setting [3]) was 400 to 500%. For the same molecule, in series [2], the “increase of P-gp-catalyzed ATP hydrolysis” value is listed as ~ 2.5 fold.
As to `CC(C)=CCCC(C)=CCCC(C)=CCO` [FOH, Farnesol, reference compound], in series [1], the “ATPase stimulation (in words)” value was “ineffective”.
For `COC(=O)[C@H](CSCC=C(C)CCC=C(C)CCC=C(C)C)NC(C)=O` [AFCME, N-acetyl-S-farnesylcysteine methyl ester], the “concentration at which the transporter's basal ATPase activity is inhibited” value at P-gp (basal ATPase activity) was > 20 µM. Moreover, at P-gp (dose-dependent, FIG. 3), the “blocking of basal and drug (FCME, verapamil)-stimulated ATPase activity (in words)” value was “can block both the basal and drug-stimulated ATPase activities of P-gp in a dose-dependent fashion”. Also, the “inhibition of basal ATPase activity (in words)” value against P-gp (higher concentrations (above 20 μM), preliminary analysis) was “marked inhibition of even the basal ATPase activity”. For the same molecule, at P-gp (low (<20 μM) concentrations, preliminary analysis), the “stimulation of ATPase activity at low concentrations (in words)” value is “weak stimulation of the ATPase activity”. Moreover, the “ATPase stimulation (in words)” value in series [1] was “essentially abolished its stimulatory effect”.
`CC(C)=CCC/C(C)=C/CC/C(C)=C/CC/C(C)=C/CSC[C@H](N)C(=O)O` [GGC, S-geranylgeranylcysteine]: the “stimulation of P-gp ATPase activity (in words)” value in series [1] is recorded as “ineffective in stimulating the ATPase of P-gp”.
`CNC(=O)C(CSCC=C(C)CCC=C(C)CCC=C(C)C)NC(C)=O` (stereo not drawn) [AFCMA]: on P-gp (Sf9 membranes, FIG. 4 right panel), the “inhibition of drug-stimulated P-gp ATPase activity (in words)” value was “potent in stimulation (FCMA) and inhibition of drug-stimulated (AFCMA) P-gp ATPase activities”.
For the molecule `CC(C)=CCCC(C)=CCCC(C)=CCSC[C@H](NC(=O)CC[C@H](N)C(=O)O)C(=O)O` [F-γGlu- Cys], the “stimulation of P-gp ATPase activity (in words)” value in series [1] was “stimulate P-gp ATPase activity in a methylation-dependent fashion”.
